Tests used:
[1] = Test-tube determination of anionic character: dye mixed with organoclay, clean clay or quat in water, centrifuged, judged visually; format: physicochemical; conditions: for Ionic character of the dye concluded from the test tubes: conclusion from Table 1 observations
Method: Thus, the molecule or ion can be tested in order to determine whether it has an anionic character (and thus can undergo the present method) or a cationic character or a neutral character. In testing certain molecules or ions, the procedure described below was employed.
Using Jarocol Straw Yellow dye as a representative example, four 1 mg samples of the dye were weighed and placed in 4 test tubes.
Subsequently, 10 mL of water was added to each of the four test tubes, and all of the samples were mixed well for 30 seconds. The samples from each of the test tubes were then centrifuged for 15 minutes in a laboratory scale centrifuge.
The analysis herein was performed visually, since the six samples tested were dyes. […] For example, for a non-dye sample, the clay may be separated from the water, both parts may be taken to dryness, and the IR spectrum of each may be recorded.

[2] = Equivalence point of anionic dye added to organoclay (water phase begins to turn a weak color); format: physicochemical
Description: The objective of the present Example was not only to determine the equivalence points at a fixed clay:quat ratio for the four anionic dyes listed above, but also to determine the effects that varying the clay:quat ratio had on the dye equivalence. The equivalence point for each anionic dye was recognized as the moment when the water phase of the anionic dye/organoclay composition began to turn a weak color. In other words, the equivalence point for each dye indicated the point at which the anionic dye would bleed or fail to be dispersible when the dye/organoclay composition is placed in an aqueous environment. This equivalence point, then, also indicates the point at which the weak bonding sites on the clay have been satisfied.
Determination of the equivalence point for the four anionic dyes began with the preparation of the organoclay and the subsequent addition of the dye to form the anionic dye/organoclay compositions. The organoclay, having a clay:quat ratio of 1.0:0.77, was prepared by first heating 150 grams of clay slurry (wherein the clay slurry comprises 3.24 grams of bentonite clay and thus comprises 2.16% solids) on a hot plate to approximately 65° C. Simultaneously, 2.495 grams of quat were dissolved in hot water. The quat used in this Example was Adogen 442, and the solution contained a quat:water ratio of 1:20. The quat solution was placed on the same hot plate and heated to 65° C., while being stirred to aid in the dissolution of the quat.
The bentonite clay slurry was added to a Waring blender and was allowed to mix under high speed agitation (speed 6) for about 1 minute. The quat solution was then added slowly to the clay slurry and was allowed to react for approximately 25-30 minutes. After this time, the blender was stopped for a few seconds to ensure adequate floccing.
The process described above was repeated using several different clay:quat ratios including 1:0.5 and 1:0.6 (less quat than the experiment described above) and 1:0.9 (an excess of quat with respect to the experiment described above).

[3] = Clay:Quat Ratio of 1:0.77, 3.24 g bentonite clay, quat Adogen 442

Row | Compound | Ionic character of the dye concluded from the test tubes [1] | Equivalence Point [2, 3] | also measured
1 | O=C(O)c1nn(-c2ccc(S(=O)(=O)O)cc2)c(O)c1N=Nc1ccc(S(=O)(=O)O)cc1 [FD&C Yellow No. 5] | anionic in nature |  | 
2 | Cc1ccc(N=Nc2c([O-])c(C(=O)O)cc3ccccc23)c(S(=O)(=O)[O-])c1.[Na+].[Na+] [Lithol Rubine B] | requisite anionic character | 0.4103 grams | Test Tube 3 (10 mg Quat) visual observation ([1]; 1 mg sample + 10 mg quat, 10 mL water, mixed 30 seconds, centrifuged 15 minutes): the quat layer was dark red and the water layer was clear; Test Tube 4 (Control, sample only) visual observation ([1]; 1 mg sample only, 10 mL water, mixed 30 seconds, centrifuged 15 minutes): Water was red; Equivalence Point ([2]; Clay:Quat Ratio of 1:0.5): 0.0693 grams; Equivalence Point ([2]; Clay:Quat Ratio of 1:0.6): 0.1471 grams; Color change of dye on incorporation into organoclay ([2]; clay:quat ratios of 1:0.77, 1:0.6 and 1:0.5): color change took place
3 | CN(C)c1ccc2nc3ccc(=[N+](C)C)cc-3sc2c1 [Methylene Blue, reference compound] | cationic in nature |  | 
4 | D&C Green No. 5 |  | 0.4853 grams | 
5 | FD&C Blue No. 1 | anionic in nature | 0.3750 grams | 
